Where a SMILES comes first, the peptide text is derived from it. Where no end group is shown, it is not given here. [ ]: non-standard residue; d: D form. The star is where a group is joined. pY = N[C@@H](Cc1ccc(OP(=O)(O)O)cc1)C(=O)O; NMeY = CN[C@@H](Cc1ccc(O)cc1)C(=O)O; Palmitoyl = CCCCCCCCCCCCCCCC(=O)*; Tle = CC(C)(C)[C@H](N)C(=O)O
How the values were obtained:
PC-12 cells = assay: Cell viability of PC-12 neural cells under glutamate stimulation (excitotoxic cell death model, propidium iodide/Hoechst staining); assay type: cell-based, rat; conditions: for Normalized cell viability (%): 10 nM compound, 30 min pretreatment, then glutamate stimulation 24 h, normalized to positive control MK-801; for EC50: dose-response relationship in promoting the viability of PC-12 neurons, glutamate stimulation
Procedure: 1.1. Culture of PC-12 Cell Line and Establishment of Excitotoxic Cell Death Model
PC-12 cells (a […] cell line derived from rat adrenal medulla) were cultured in DMEM/F12 complete medium until eaching 80-90% confluence. The cells were then digested, collected, resuspended, and seeded at density of 5×10^4 cells per well in a 24-well plate precoated with coverslips. Following 26 hours of cell culture, excitotoxic cell death was induced by glutamate stimulation. For model establishment: an appropriate amount of glutamate was weighed and dissolved in DMEM/F12 medium to prepare a stock solution. After filtration, the stock solution was diluted with culture medium and administered to the cells via medium replacement. The cells were further incubated for 24 hours after administration.
1.2 Administration of Small Molecules
Prior to glutamate modeling, cells incubated as described in the previous step were pretreated with 10 nM of the polypeptide compound according to the present application for 30 minutes, followed by glutamate stimulation.
1.3. Propidium Iodide Staining
Cells treated with the polypeptide compound according to the present application were stained with propidium iodide to assess cell death. After discarding the culture medium, the cells were washed with PBS, and propidium iodide/Hoechst was added. After incubating for 30 minutes, the cells were removed and the staining solution was discarded. After washing with PBS, the cells were fixed and mounted, and subjected to image acquisition under a fluorescence microscope. The number of propidium iodide-positive cells and Hoechst-positive cells in the acquired images was counted to calculate the cell viability. MK-801 was used as the positive control compound. The normalized cell viability was calculated using the following formula: (cell viability of the compound group −cell viability of the glutamate group)/(cell viability of the positive control group −cell viability of the glutamate group)×100%.
Based on the above dose-response studies of the compound, the inhibitory effects of different small-molecule compounds at the same dose (10 nM) against excitotoxic death in PC-12 neurons cells were further compared.
Based on this, the dose-response relationship of the neuroprotective effect of the polypeptide compounds according to the present application on PC-12 neural cells was analyzed.

[1] = Pharmacokinetic characteristics in rats after intravenous administration (plasma, LC-MS/MS); assay type: in vivo; conditions: SD rats, intravenous (tail vein), 10 mg/kg; for MRT inf: rat
Procedure: Experimental Example 2: Pharmacokinetic Characteristics of Various Compounds in Rats
Intravenous administration: Three SD rats per group were administered the compounds of Example 1, Example 2, Example 3, Example 6, Example 7, Example 17, and Example 19 via the tail vein, respectively, at a dose of 10 mg/kg. all SD rats were allowed free access to food and water after administration. Plasma was collected 3 min, 10 min, 30 min, 1 h, 2 h, 6 h, 10 h, and 24 h after administration, with 3 rats per time point.
Sample processing: Whole blood was anticoagulated with EDTA-K2. Within 30 minutes of collection, the blood was centrifuged at 3000 g for 10 minutes at 2-8 °C. After centrifugation, the separated plasma was transferred to new 1.5 mL centrifuge tubes and stored at −80 °C.
Analytical method: The concentrations of each compounds in rat plasma were determined by LC-MS/MS using Shimadzu LC30AD and AB Sciex QTRAP 6500+instruments. The relevant pharmacokinetic parameters after administration were calculated.

Compound | Normalized cell viability (%) (PC-12 cells) | T1/2 [1] [h] | Vss [1] [L/kg] | MRT inf [1] [h] | EC50 (PC-12 cells) [nM]
CC(=O)N[C@@H](Cc1ccc(O)cc1)C(=O)NCC(=O)N[C@@H](CCCNC(=N)N)C(=O)N[C@@H](CCCCN)C(=O)N[C@H](CCCCN)C(=O)N[C@H](CCCNC(=N)N)C(=O)N[C@@H](CCCNC(=N)N)C(=O)N[C@@H](CCC(=O)O)C(=O)N[C@@H](CCCNC(=N)N)C(=O)N[C@H](CCCNC(=N)N)C(=O)N[C@@H](CCCNC(=N)N)C(=O)N[C@@H](CCCCN)C(=O)N[C@@H](CCCCN)C(=O)N[C@@H](CC(=O)O)C(=O)N[C@@H](CCCNC(=N)N)C(=O)N[C@@H](CC(=O)O)C(=O)N[C@@H](CCCCN)C(=O)N[C@H](CC(C)C)C(=O)N[C@H](CCCNC(=N)N)C(=O)N[C@@H](CCCNC(=N)N)C(=O)N[C@@H](CCC(=O)O)C(=O)N[C@@H](Cc1c[nH]cn1)C(=O)N[C@@H](CO)C(=O)N[C@@H](Cc1ccc(O)cc1)C(N)=O [Example 26, Ac-YGRK(D-K)(D-R)RER(D-R)RKKDRDK(D-L)(D-R)REHSY-NH2] (Ac-YGRK[dK][dR]RER[dR]RKKDRDK[dL][dR]REHSY-NH2) | 82.39 | – | – | – | –
CC(C)C[C@H](NC(=O)[C@H](CCCCN)NC(=O)[C@H](CC(N)=O)NC(=O)[C@H](CCCNC(=N)N)NC(=O)[C@H](CC(N)=O)NC(=O)[C@H](CCCCN)NC(=O)[C@H](CCCCN)NC(=O)[C@H](CCCNC(=N)N)NC(=O)[C@H](CCCNC(=N)N)NC(=O)[C@H](CCCNC(=N)N)NC(=O)[C@H](CCC(N)=O)NC(=O)[C@H](CCCNC(=N)N)NC(=O)[C@H](CCCNC(=N)N)NC(=O)[C@H](CCCCN)NC(=O)[C@H](CCCCN)NC(=O)[C@H](CCCNC(=N)N)NC(=O)CNC(=O)[C@@H](N)Cc1ccc(OP(=O)(O)O)cc1)C(=O)N[C@@H](CCCNC(=N)N)C(=O)N[C@@H](CCCNC(=N)N)C(=O)N[C@@H](CCC(N)=O)C(=O)N[C@@H](Cc1c[nH]cn1)C(=O)N[C@@H](CO)C(=O)N[C@@H](Cc1ccc(O)cc1)C(=O)O [Example 3] (H-[pY]GRKKRRQRRRKKNRNKLRRQHSY-OH) | – | 1.28 | 7.90 | 1.71 | –
YGRKKRRQRRRKKNRNKLRRQHSY-NH2 [Example 6] | – | 1.23 | 2.53 | 1.65 | 13.5
CC(=O)N[C@@H](Cc1ccc(O)cc1)C(=O)NCC(=O)N[C@@H](CCCNC(=N)N)C(=O)N[C@@H](CCCCN)C(=O)N[C@@H](CCCCN)C(=O)N[C@@H](CCCNC(=N)N)C(=O)N[C@@H](CCCNC(=N)N)C(=O)N[C@@H](CCC(=O)O)C(=O)N[C@@H](CCCNC(=N)N)C(=O)N[C@@H](CCCNC(=N)N)C(=O)N[C@@H](CCCNC(=N)N)C(=O)N[C@@H](CCCCN)C(=O)N[C@@H](CCCCN)C(=O)N[C@@H](CC(=O)O)C(=O)N[C@@H](CCCNC(=N)N)C(=O)N[C@@H](CC(=O)O)C(=O)N[C@@H](CCCCN)C(=O)N[C@H](CC(C)C)C(=O)N[C@@H](CCCNC(=N)N)C(=O)N[C@@H](CCCNC(=N)N)C(=O)N[C@@H](CCC(=O)O)C(=O)N[C@@H](Cc1c[nH]cn1)C(=O)N[C@@H](CO)C(=O)N[C@@H](Cc1ccc(O)cc1)C(N)=O [Example 20, Ac-YGRKKRRERRRKKDRDK(D-L)RREHSY-NH2] (Ac-YGRKKRRERRRKKDRDK[dL]RREHSY-NH2) | 87.36 | – | – | – | –
CC(=O)N[C@@H](Cc1ccc(O)cc1)C(=O)NCC(=O)N[C@@H](CCCNC(=N)N)C(=O)N[C@@H](CCCCN)C(=O)N[C@@H](CCCCN)C(=O)N[C@@H](CCCNC(=N)N)C(=O)N[C@@H](CCCNC(=N)N)C(=O)N[C@@H](CCC(=O)O)C(=O)N[C@@H](CCCNC(=N)N)C(=O)N[C@@H](CCCNC(=N)N)C(=O)N[C@@H](CCCNC(=N)N)C(=O)N[C@@H](CCCCN)C(=O)N[C@@H](CCCCN)C(=O)N[C@@H](CC(=O)O)C(=O)N[C@@H](CCCNC(=N)N)C(=O)N[C@@H](CC(=O)O)C(=O)N[C@@H](CCCCN)C(=O)N[C@H](C(=O)N[C@@H](CCCNC(=N)N)C(=O)N[C@@H](CCCNC(=N)N)C(=O)N[C@@H](CCC(=O)O)C(=O)N[C@@H](Cc1c[nH]cn1)C(=O)N[C@@H](CO)C(=O)N[C@@H](Cc1ccc(O)cc1)C(N)=O)C(C)(C)C [Example 25, Ac-YGRKKRRERRRKKDRDKTleRREHSY-NH2] (Ac-YGRKKRRERRRKKDRDK[Tle]RREHSY-NH2) | 86.80 | – | – | – | –
YGRKKRRQRRRKKNRDKLRREHSY [Example 16] | 85.15 | – | – | – | 18.8
Ac-YGRKKRRQRRRKKNRNKLRRQHSY-NH2 [Example 7] | – | 1.51 | 3.58 | 1.93 | 8.72
Ac-YGRKKRRERRRKKDRDKLRREHSY-NH2 [Example 18] | 87.20 | – | – | – | –
YGRKKRRERRRKKDRNKLRRQHSY [Example 17] | – | 1.66 | 23.1 | 2.29 | –
YGRKKRRQRRRKKNRNKIRRQHSY-NH2 [Example 12] | 58.59 | – | – | – | –
CCCCCCCCCCCCCCCC(=O)N[C@@H](Cc1ccc(O)cc1)C(=O)NCC(=O)N[C@@H](CCCNC(=N)N)C(=O)N[C@@H](CCCCN)C(=O)N[C@@H](CCCCN)C(=O)N[C@@H](CCCNC(=N)N)C(=O)N[C@@H](CCCNC(=N)N)C(=O)N[C@@H](CCC(N)=O)C(=O)N[C@@H](CCCNC(=N)N)C(=O)N[C@@H](CCCNC(=N)N)C(=O)N[C@@H](CCCNC(=N)N)C(=O)N[C@@H](CCCCN)C(=O)N[C@@H](CCCCN)C(=O)N[C@@H](CC(N)=O)C(=O)N[C@@H](CCCNC(=N)N)C(=O)N[C@@H](CC(N)=O)C(=O)N[C@@H](CCCCN)C(=O)N[C@@H](CC(C)C)C(=O)N[C@@H](CCCNC(=N)N)C(=O)N[C@@H](CCCNC(=N)N)C(=O)N[C@@H](CCC(N)=O)C(=O)N[C@@H](Cc1c[nH]cn1)C(=O)N[C@@H](CO)C(=O)N[C@@H](Cc1ccc(O)cc1)C(N)=O [Example 10] (Palmitoyl-YGRKKRRQRRRKKNRNKLRRQHSY-NH2) | 49.46 | – | – | – | –
CN[C@@H](Cc1ccc(O)cc1)C(=O)NCC(=O)N[C@@H](CCCNC(=N)N)C(=O)N[C@@H](CCCCN)C(=O)N[C@@H](CCCCN)C(=O)N[C@@H](CCCNC(=N)N)C(=O)N[C@@H](CCCNC(=N)N)C(=O)N[C@@H](CCC(N)=O)C(=O)N[C@@H](CCCNC(=N)N)C(=O)N[C@@H](CCCNC(=N)N)C(=O)N[C@@H](CCCNC(=N)N)C(=O)N[C@@H](CCCCN)C(=O)N[C@@H](CCCCN)C(=O)N[C@@H](CC(N)=O)C(=O)N[C@@H](CCCNC(=N)N)C(=O)N[C@@H](CC(N)=O)C(=O)N[C@@H](CCCCN)C(=O)N[C@@H](CC(C)C)C(=O)N[C@@H](CCCNC(=N)N)C(=O)N[C@@H](CCCNC(=N)N)C(=O)N[C@@H](CCC(N)=O)C(=O)N[C@@H](Cc1c[nH]cn1)C(=O)N[C@@H](CO)C(=O)N[C@@H](Cc1ccc(O)cc1)C(N)=O [Example 9] (H-[NMeY]GRKKRRQRRRKKNRNKLRRQHSY-NH2) | 63.17 | – | – | – | 4.83
Ac-YGRKKRRERRRKKDRDKVRREHSY-NH2 [Example 23] | 74.16 | – | – | – | –
Ac-YGRKKRRQRRRKKNRNKLRRQHSY [Example 4] | 85.00 | – | – | – | –
CCCCCCCCCCCCCCCC(=O)NCCOCCOCC(=O)NCCCC[C@H](NC(=O)[C@H](CCCNC(=N)N)NC(=O)[C@H](CCCNC(=N)N)NC(=O)[C@H](CCCNC(=N)N)NC(=O)[C@H](CCC(N)=O)NC(=O)[C@H](CCCNC(=N)N)NC(=O)[C@H](CCCNC(=N)N)NC(=O)[C@H](CCCCN)NC(=O)[C@H](CCCCN)NC(=O)[C@H](CCCNC(=N)N)NC(=O)CNC(=O)[C@@H](N)Cc1ccc(O)cc1)C(=O)N[C@@H](CCCCN)C(=O)N[C@@H](CC(N)=O)C(=O)N[C@@H](CCCNC(=N)N)C(=O)N[C@@H](CC(N)=O)C(=O)N[C@@H](CCCCN)C(=O)N[C@@H](CC(C)C)C(=O)N[C@@H](CCCNC(=N)N)C(=O)N[C@@H](CCCNC(=N)N)C(=O)N[C@@H](CCC(N)=O)C(=O)N[C@@H](Cc1c[nH]cn1)C(=O)N[C@@H](CO)C(=O)N[C@@H](Cc1ccc(O)cc1)C(=O)O [Example 14, YGRKKRRQRRRK(N-AEEA-Palmitic acid)KNRNKLRRQHSY] | 84.14 | – | – | – | –

From patent publication US20260347409A1, “CHEMICALLY MODIFIED POLYPEPTIDE” (SUZHOU GLENKOL PHARMA TECHNOLOGY CO., LTD., priority 2023, published 2026)
